According to US5891842A, “Methodology for eliciting an analgesic response in a living subject” (priority 1996, dated 1999):
Where two headings read alike, the source gives them in different places.

Legend:
[1] = cited from earlier work
[2] = oral, antitussive doses, cited from earlier work; for DOSE (figures in parentheses): not necessarily equieffective
[3] = test system: Adult male Sprague-Dawley rats; assay: Tail-flick analgesic testing after intrathecal administration; assay type: in vivo, rat
[4] = test system: rats with spinal cord transection; assay: Tail-flick analgesic testing after intrathecal administration, acutely transected spinal cord; assay type: in vivo, rat; conditions: 0.2 ug MS alone
[5] = 10 mg/70 kg body weight; cited from earlier work
[6] = intrathecal administration of morphine; cited from earlier work
[7] = analgesic effects after subcutaneous administration

Structure (SMILES)	DURATION OF ACTION [1, 7] [h]	DOSE: amount given subcutaneously that produces approximately the same analgesic effects as 10 mg of morphine ([1]; in vivo, sc)	further results
CCC(=O)OC1(c2ccccc2)CCN(C)CC1C (stereo not shown) [Alphaaprodine, Alphaprodine]	1 to 2	40	–
COc1ccc2c3c1O[C@H]1[C@@H](O)C=C[C@H]4[C@@H](C2)N(C)CC[C@@]341 [Codeine]	–	120	DURATION OF ACTION (figures in parentheses) [2]: 4 to 6 h; DOSE (figures in parentheses) [2]: 10 to 20 mg
C[C@H](CN1CCOCC1)C(C(=O)N1CCCC1)(c1ccccc1)c1ccccc1 [Dextromoramide]	4 to 5	5-7.5	–
CCC(=O)C(CC(C)N1CCCCC1)(c1ccccc1)c1ccccc1 (stereo not shown) [Dipipanone]	4 to 5	20-25	–
COc1ccc2c3c1O[C@H]1[C@@H](O)CC[C@H]4[C@@H](C2)N(C)CC[C@@]341 [Drocode, dihydrocodeine]	4 to 5	60	–
CC(=O)Oc1ccc2c3c1O[C@H]1[C@@H](OC(C)=O)C=C[C@H]4[C@@H](C2)N(C)CC[C@@]341 [Heroin, diacetylmorphine]	3 to 4	4	DOSE (figures in parentheses) [2]: 2 to 8 mg
COc1ccc2c3c1O[C@H]1C(=O)CC[C@H]4[C@@H](C2)N(C)CC[C@]314 [Hyrocodone, dihydrocodeinone]	–	–	DURATION OF ACTION (figures in parentheses) [2]: 4 to 8 h; DOSE (figures in parentheses) [2]: 5 to 10 mg
CN1CC[C@]23CCCC[C@H]2[C@H]1Cc1ccc(O)cc13 [Levorphanol]	4 to 5	2	–
CN1CC[C@]23c4c5ccc(O)c4O[C@H]2[C@@H](O)C=C[C@H]3[C@H]1C5.O=S(=O)(O)O [MS, morphine sulphate]	–	–	analgesic response ([3]; 0.02 ug MS alone, intrathecal): weak response; analgesic response, peak ([3]; 0.1 ug MS alone, intrathecal): approximately 30 % MPE; analgesic response ([3]; 0.5 ug MS alone, intrathecal): maximal analgesic response between 5 and 30 min; declined to baseline ([3]; 0.5 ug MS alone, intrathecal): 60 min; analgesic response [4]: modest analgesic response
CCOC(=O)C1(c2ccccc2)CCN(C)CC1 [Meperidine]	2 to 4	75-100	–
CCC(=O)C(CC(C)N(C)C)(c1ccccc1)c1ccccc1 (stereo not shown) [Methadone]	3 to 5	8-10	–
CN1CC[C@]23c4c5ccc(O)c4O[C@H]2[C@@H](O)C=C[C@H]3[C@H]1C5 [Morphine]	–	10	DURATION OF ACTION ([1]; in vivo, sc): 4-5; relieves post-operative pain satisfactorily (share of patients) [5]: about two-thirds; effect on hyperalgesia of administered substance P [6]: blocks the hyperalgesic effects
COc1ccc2c3c1O[C@H]1C(=O)CC[C@@]4(O)[C@@H](C2)N(C)CC[C@]314 [Oxycodone, dihydrohydroxycodeinone]	4 to 5	10-15	–
CN1CC[C@]23c4c5ccc(O)c4O[C@H]2C(=O)CC[C@@]3(O)[C@H]1C5 [Oxymorphone, dihydrohydroxymorphinone]	4 to 5	1.0-1.5	–
CCC(=O)C(CC(C)N1CCOCC1)(c1ccccc1)c1ccccc1 (stereo not shown) [Phenadoxone]	1 to 3	10-20	–
CN1CC[C@]23c4c5ccc(OCCN6CCOCC6)c4O[C@H]2[C@@H](O)C=C[C@H]3[C@H]1C5 [Pholcodine, β-morpholinylethylmorphine]	–	–	DURATION OF ACTION (figures in parentheses) [2]: 4 to 5 h; DOSE (figures in parentheses) [2]: 5 to 15 mg
C=CCN1CC[C@]23c4c5ccc(O)c4O[C@H]2C(=O)CC[C@@]3(O)[C@H]1C5 [naloxone]	–	–	analgesic response produced by MS in combination with SP after naloxone pretreatment ([3]; naloxone 1.0 ug intrathecal 10 min prior to 0.1 ug MS + 10 pmol SP): essentially eliminated
